These results are taken from US20230295118A1 (EnhancedBio Inc., priority 2022, published 2023).

SMILES strings stand for the structures. Where two headings read alike, the source gives them in different places. Some results are limits rather than exact numbers.

Common to all, as to assay type: cell-based
The target in one assay is T1, CDK4 (Homo sapiens, UniProt P11802).
T1 construct: endogenous in cells
The experiment in a line: CDK4 degradation (DC50, Dmax).

The next assay deals with T2, CDK6 (Homo sapiens, UniProt Q00534).
T2 construct: endogenous in cells
The assay is described as follows: CDK6 degradation (DC50, Dmax).

Assay [1] deals with mantle cell lymphoma cell (Mino or JeKo-1). The experiment in a line: Antiproliferative effect, MTS cell viability assay. On the procedure: Antiproliferative effect of the exemplary compounds was assessed in B-cell malignancy models.
To assess the effect of the exemplary compounds on cell viability in B-cell malignancy models by degradation of CDK4/6 proteins, Mino cells were treated with varying concentrations of exemplary compounds (0, 0.0001, 0.001, 0.01, 0.1, 1 μM) or positive control (palbociclib and abemaciclib). Under these conditions, cell viability was determined by an MTS assay. Cytotoxicity was assayed by the determination of reduced tetrazolium (formazan) created by metabolically active cells as detected at 490 nanometers (nm) absorbance using a microplate reader (BMG Labtech, Cary, NC, USA).
The exemplary compounds attenuated the viability of Mino cells in a concentration-dependent manner at 72 h post treatment. Results are shown in Table 1 and FIGS. 2-15 for each exemplary compound.

Where [2] appears, read: 72 h, mantle cell lymphoma cell (Mino or JeKo-1), MTS assay, read-out: IC50 (anti-proliferation).
Where [3] appears, read: Mino cells; 0-1 μM; 72 h; result in words.

One may read the DC50 as the concentration giving 50% degradation. A lower DC50 goes with a more potent degrader. As usually defined, the Dmax is the largest share of the target that was removed.

T2 sequence (Q00534 whole entry): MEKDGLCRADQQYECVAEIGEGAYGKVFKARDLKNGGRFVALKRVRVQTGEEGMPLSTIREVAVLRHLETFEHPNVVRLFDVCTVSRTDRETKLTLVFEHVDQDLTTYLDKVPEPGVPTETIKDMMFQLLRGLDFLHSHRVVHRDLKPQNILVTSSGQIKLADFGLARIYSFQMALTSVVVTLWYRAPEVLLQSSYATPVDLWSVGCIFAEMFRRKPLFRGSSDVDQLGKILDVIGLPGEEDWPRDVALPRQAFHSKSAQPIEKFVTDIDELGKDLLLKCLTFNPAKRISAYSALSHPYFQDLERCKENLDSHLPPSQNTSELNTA
T1 sequence (P11802 whole entry): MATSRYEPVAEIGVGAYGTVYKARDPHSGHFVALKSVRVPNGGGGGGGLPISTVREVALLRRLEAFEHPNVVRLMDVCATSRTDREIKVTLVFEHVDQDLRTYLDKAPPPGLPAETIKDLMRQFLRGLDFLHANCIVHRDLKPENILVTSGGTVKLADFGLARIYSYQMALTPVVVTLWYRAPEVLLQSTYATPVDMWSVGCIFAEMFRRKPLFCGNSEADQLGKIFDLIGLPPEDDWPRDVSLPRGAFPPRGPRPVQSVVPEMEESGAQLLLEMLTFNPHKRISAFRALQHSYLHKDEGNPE

Turning to `Cc1nc2c(F)cc(-c3nc(Nc4ccc(CN5CCN(C6CCN(c7ccc8c(c7)C(=O)N(C7CCC(=O)NC7=O)C8=O)CC6)CC5)cn4)ncc3F)cc2n1C(C)C` (stereo not shown) [Compound 165, 2-(2,6-dioxopiperidin-3-yl)-5-(4-(4-((6-((5-fluoro-4-(4-fluoro-1-isopropyl-2-methyl-1H-benzo[d]imidazol-6-yl)pyrimidin-2-yl)amino)pyridin-3-yl)methyl)piperazin-1-yl)piperidin-1-yl)isoindoline-1,3-dione], at CDK4, the DC50 was 50 to 200 nM and the Dmax was over 80%. At CDK6, this compound registered a DC50 of 50 to 200 nM and a Dmax of over 80%. Also, the IC50 in assay [1] (setting [2]) is under 50 nM.

Turning to `Cc1nc2c(F)cc(-c3nc(Nc4ccc(CN5CCN(CCCNc6ccc(N7CCC(=O)NC7=O)cc6)CC5)cn4)ncc3F)cc2n1C(C)C` [Compound 107, 1-(4-((3-(4-((6-((5-fluoro-4-(4-fluoro-1-isopropyl-2-methyl-1H-benzo[d]imidazol-6-yl)pyrimidin-2-yl)amino)pyridin-3-yl)methyl)piperazin-1-yl)propyl)amino)phenyl)dihydro-pyrimidine-2,4 (1H,3H)-dione], at CDK4, the DC50 is under 50 nM and the Dmax was over 80%. Moreover, at CDK6, the DC50 is under 50 nM and the Dmax was over 80%. The IC50 in assay [1] (setting [2]) was under 50 nM.

In the case of `Cc1nc2c(F)cc(-c3nc(Nc4ccc(CC5CCN(CC6CCN(c7ccc(C(=O)NC8CCC(=O)NC8=O)cc7)CC6)CC5)cn4)ncc3F)cc2n1C(C)C` (stereo not shown) [Compound 159, N-(2,6-dioxopiperidin-3-yl)-4-(4-((4-((6-((5-fluoro-4-(4-fluoro-1-isopropyl-2-methyl-1H-benzo[d]imidazol-6-yl)pyrimidin-2-yl)amino)pyridin-3-yl)methyl)piperidin-1-yl)methyl)piperidin-1-yl)benzamide], at CDK4, the DC50 was under 50 nM and the greatest degradation seen (Dmax) is over 80%. At CDK6, this compound came in with a DC50 of under 50 nM and a Dmax of over 80%. The IC50 in assay [1] (setting [2]) is under 50 nM.

`CC(=O)c1c(C)c2cnc(Nc3ccc(N4CCN(C5CCN(c6ccc7c(c6)C(=O)N(C6CCC(=O)NC6=O)C7=O)CC5)CC4)cn3)nc2n(C2CCCC2)c1=O` (stereo not shown) [Compound 63, 5-(4-(4-(6-((6-acetyl-8-cyclopentyl-5-methyl-7-oxo-7,8-dihydropyrido[2,3-d]pyrimidin-2-yl)amino)pyridin-3-yl)piperazin-1-yl)piperidin-1-yl)-2-(2,6-dioxopiperidin-3-yl)isoindoline-1,3-dione]: at CDK4, the DC50 fell in the range of 50 to 200 nM and the Dmax was over 80%. At CDK6, this compound came in with a DC50 of under 50 nM and a Dmax of over 80%. In addition, the IC50 in assay [1] (setting [2]) was under 50 nM. Also, in assay [1] (setting [3]), the “inhibition of cell proliferation of Mino cells” value is “dose-dependent inhibition of cell proliferation”.

At CDK4, `CC(=O)c1c(C)c2cnc(Nc3ccc(N4CCN(CC5CCN(c6ccc7c(c6)CN(C6CCC(=O)NC6=O)C7=O)CC5)CC4)cn3)nc2n(C2CCCC2)c1=O` (stereo not shown) [Compound 66, 3-(5-(4-((4-(6-((6-acetyl-8-cyclopentyl-5-methyl-7-oxo-7,8-dihydropyrido[2,3-d]pyrimidin-2-yl)amino)pyridin-3-yl)piperazin-1-yl)methyl)piperidin-1-yl)-1-oxoisoindolin-2-yl)piperidine-2,6-dione] came in with a DC50 of 50 to 200 nM and a Dmax of over 80%. On CDK6, this compound yielded a DC50 of under 50 nM and a Dmax of over 80%. Besides, the IC50 in assay [1] (setting [2]) is under 50 nM.

In the case of `CC(=O)c1c(C)c2cnc(Nc3ccc(N4CCN(CC5CCN(C(=O)Nc6ccc7c(c6)C(=O)N(C6CCC(=O)NC6=O)C7=O)CC5)CC4)cn3)nc2n(C2CCCC2)c1=O` (stereo not shown) [Compound 41, 4-((4-(6-((6-acetyl-8-cyclopentyl-5-methyl-7-oxo-7,8-dihydropyrido[2,3-d]pyrimidin-2-yl)amino)pyridin-3-yl)piperazin-1-yl)methyl)-N-(2-(2,6-dioxopiperidin-3-yl)-1,3-dioxoisoindolin-5-yl)piperidine-1-carboxamide], the DC50 was under 50 nM at CDK4 and 50 to 200 nM at CDK6. Also, the Dmax at CDK4 and at CDK6 was over 80% in each case. The IC50 in assay [1] (setting [2]) is under 50 nM.

As for `Cc1nc2c(F)cc(-c3nc(Nc4ccc(CN5CCN(C6CCN(c7ccc(C(=O)NC8CCC(=O)NC8=O)cc7)CC6)CC5)cn4)ncc3F)cc2n1C(C)C` (stereo not shown) [Compound 150, N-(2,6-dioxopiperidin-3-yl)-4-(4-(4-((6-((5-fluoro-4-(4-fluoro-1-isopropyl-2-methyl-1H-benzo[d]imidazol-6-yl)pyrimidin-2-yl)amino)pyridin-3-yl)methyl)piperazin-1-yl)piperidin-1-yl)benzamide], at CDK4, the DC50 is under 50 nM and the Dmax is over 80%. On CDK6, the DC50 is under 50 nM and the maximal degradation (Dmax) is over 80%. For the same compound, the IC50 in assay [1] (setting [2]) was under 50 nM.

For `CC(=O)c1c(C)c2cnc(Nc3ccc(N4CCN(CC5CCN(C(=O)N6CCN(c7ccc8c(c7)C(=O)N(C7CCC(=O)NC7=O)C8=O)CC6)CC5)CC4)cn3)nc2n(C2CCCC2)c1=O` (stereo not shown) [Compound 31, 5-(4-(4-((4-(6-((6-acetyl-8-cyclopentyl-5-methyl-7-oxo-7,8-dihydropyrido[2,3-d]pyrimidin-2-yl)amino)pyridin-3-yl)piperazin-1-yl)methyl)piperidine-1-carbonyl)piperazin-1-yl)-2-(2,6-dioxopiperidin-3-yl)isoindoline-1,3-dione], the half-maximal degradation concentration (DC50) on CDK4 and at CDK6 was 50 to 200 nM each time. The Dmax at CDK4 and at CDK6 was over 80% throughout. The IC50 in assay [1] (mantle cell lymphoma cell (Mino or JeKo-1); MTS assay, 72 h; read-out: IC50 (anti-proliferation)) was under 50 nM.

On CDK4, `Cc1nc2c(F)cc(-c3nc(Nc4ccc(CN5CCN(C(=O)C6CCN(c7ccc8c(c7)CN(C7CCC(=O)NC7=O)C8=O)CC6)CC5)cn4)ncc3F)cc2n1C(C)C` (stereo not shown) [Compound 154] had a DC50 of 50 to 200 nM and a Dmax of over 60%. In addition, on CDK6, the DC50 is over 200 nM and the Dmax is over 60%. In assay [1] (setting [2]), the IC50 lay in the range of 50 to 200 nM.

On to `CC(=O)c1c(C)c2cnc(Nc3ccc(N4CCN(C(=O)C5CCN(c6ccc7c(c6)CN(C6CCC(=O)NC6=O)C7=O)CC5)CC4)cn3)nc2n(C2CCCC2)c1=O` (stereo not shown) [Compound 115, 3-(5-(4-(4-(6-((6-acetyl-8-cyclopentyl-5-methyl-7-oxo-7,8-dihydropyrido[2,3-d]pyrimidin-2-yl)amino)pyridin-3-yl)piperazine-1-carbonyl)piperidin-1-yl)-1-oxoisoindolin-2-yl)piperidine-2,6-dione], for which, on CDK4, the DC50 was 50 to 200 nM and the Dmax was over 60%. Further, on CDK6, the DC50 was 50 to 200 nM and the Dmax was over 60%. For the same compound, the IC50 in assay [1] (setting [2]) was under 50 nM.

On CDK4, `Cc1nc2c(F)cc(-c3nc(Nc4ccc(CN5CCN(C(=O)C6CN(c7ccc8c(c7)C(=O)N(C7CCC(=O)NC7=O)C8=O)C6)CC5)cn4)ncc3F)cc2n1C(C)C` (stereo not shown) [Compound 135, 2-(2,6-dioxopiperidin-3-yl)-5-(3-(4-((6-((5-fluoro-4-(4-fluoro-1-isopropyl-2-methyl-1H-benzo[d]imidazol-6-yl)pyrimidin-2-yl)amino)pyridin-3-yl)methyl)piperazine-1-carbonyl)azetidin-1-yl)isoindoline-1,3-dione] registered a half-maximal degradation concentration (DC50) of under 50 nM and a Dmax of over 80%. On CDK6, this compound returned a DC50 of 50 to 200 nM and a Dmax of over 60%. In addition, the IC50 in assay [1] (setting [2]) was under 50 nM.

On to `CC(=O)c1c(C)c2cnc(Nc3ccc(N4CCN(CC5CCN(C(=O)N6CCC(CN7CCN(c8ccc9c(c8)C(=O)N(C8CCC(=O)NC8=O)C9=O)CC7)CC6)CC5)CC4)cn3)nc2n(C2CCCC2)c1=O` (stereo not shown) [Compound 84, 5-(4-((1-(4-((4-(6-((6-acetyl-8-cyclopentyl-5-methyl-7-oxo-7,8-dihydropyrido[2,3-d]pyrimidin-2-yl)amino)pyridin-3-yl)piperazin-1-yl)methyl)piperidine-1-carbonyl)piperidin-4-yl)methyl)piperazin-1-yl)-2-(2,6-dioxopiperidin-3-yl) isoindoline-1,3-dione], for which, at CDK4, the DC50 fell in the range of 50 to 200 nM and the Dmax is over 80%. For the same compound, at CDK6, the DC50 lay in the range of 50 to 200 nM and the greatest degradation seen (Dmax) was over 80%. The IC50 in assay [1] (setting [2]) was under 50 nM.

With `Cc1nc2c(F)cc(-c3nc(Nc4ccc(CN5CCN(CCNc6cccc7c6C(=O)N(C6CCC(=O)NC6=O)C7=O)CC5)cn4)ncc3F)cc2n1C(C)C` (stereo not shown) [Compound 92, 2-(2,6-dioxopiperidin-3-yl)-4-((2-(4-((6-((5-fluoro-4-(4-fluoro-1 isopropyl-2-methyl-1H-benzo[d]imidazol-6-yl)pyrimidin-2-yl)amino)pyridin-3-yl)methyl)piperazin-1-yl)ethyl)amino) isoindoline-1,3-dione], the DC50 at CDK4 is 50 to 200 nM; at CDK6, under 50 nM. Further, the Dmax on CDK4 and on CDK6 was over 80% throughout. Further, in assay [1] (setting [2]), the IC50 was under 50 nM. For the same compound, in assay [1] (setting [3]), the “inhibition of cell proliferation of Mino cells” value is “dose-dependent inhibition of cell proliferation”.
